{"source": "patent US11638428B2", "about": "“Nematocidal heterocyclic amides” (CORTEVA AGRISCIENCE LLC, priority 2015, dated 2023)", "data": [{"system": "cucumber seedlings", "assay": "Test A: phytotoxicity to the cucumber seedlings of the test units", "assay_type": "in vivo", "conditions": "500 ppm active ingredient applied to soil", "procedure": "Control of the southern root-knot nematode (Meloidogyne incognita) through contact and/or systemic means was evaluated in test units consisting of small open containers filled with a sandy soil mixture and cucumber seedlings. Test compounds were formulated using a solution containing 50% acetone and 50% water. […] Each test was replicated 3 times. After treatment, the test units were allowed to dry for 1 hour, after which time about 400 second-stage juvenile (J2) larvae and 800 eggs were pipetted into the soil. The test units were held at 27° C. and watered as needed for 7 days. Nematocidal efficacy was determined by the amount of root gall formation observed when compared to an untreated control. No gall formation was indicative of 100% nematode control. […] No nematode control rating was given to compounds showing significant phytotoxicity.", "values": [{"smiles": "CC(NC(=O)c1ccoc1Cl)C1CC1", "note": "(racemic) [Compound 11]", "phytotoxicity": "no significant phytotoxicity"}, {"smiles": "CC(NC(=O)c1sccc1C(C)(C)C)C(C)(C)C", "note": "(single isomer, unassigned) [Compound 92]", "phytotoxicity": "no significant phytotoxicity"}, {"smiles": "CCC(C)C(C)NC(=O)c1ccoc1C", "note": "(stereo not shown) [Compound 1]", "phytotoxicity": "no significant phytotoxicity"}, {"smiles": "Cc1occc1C(=O)N(C)C(C)C1CC1", "note": "(stereo not shown) [Compound 2]", "phytotoxicity": "no significant phytotoxicity"}, {"smiles": "Cc1occc1C(=O)NC(C)C", "note": "[Compound 3]", "phytotoxicity": "no significant phytotoxicity"}, {"smiles": "Cc1occc1C(=O)NC(C)C(C)C", "note": "(stereo not shown) [Compound 4]", "phytotoxicity": "no significant phytotoxicity"}, {"smiles": "CCCC(C)NC(=O)c1ccoc1C", "note": "(stereo not shown) [Compound 5]", "phytotoxicity": "no significant phytotoxicity"}, {"smiles": "Cc1occc1C(=O)NC(C)C1CC1", "note": "(stereo not shown) [Compound 6]", "phytotoxicity": "no significant phytotoxicity"}, {"smiles": "Cc1occc1C(=O)NC(C)(C)C1CC1", "note": "[Compound 7]", "phytotoxicity": "no significant phytotoxicity"}, {"smiles": "CC(C)(NC(=O)c1ccoc1Cl)C1CC1", "note": "[Compound 8]", "phytotoxicity": "no significant phytotoxicity"}, {"smiles": "CC(C)C(C)(C)NC(=O)c1ccoc1Cl", "note": "[Compound 10]", "phytotoxicity": "no significant phytotoxicity"}, {"smiles": "COCC(C)(C)NC(=O)c1ccoc1Cl", "note": "[Compound 12]", "phytotoxicity": "no significant phytotoxicity"}, {"smiles": "CSCC(C)(C)NC(=O)c1ccoc1Cl", "note": "[Compound 14]", "phytotoxicity": "no significant phytotoxicity"}, {"smiles": "CCC(C)NC(=O)c1ccoc1Cl", "note": "(stereo not shown) [Compound 16]", "phytotoxicity": "no significant phytotoxicity"}, {"smiles": "CCCC(C)NC(=O)c1ccoc1Cl", "note": "(stereo not shown) [Compound 17]", "phytotoxicity": "no significant phytotoxicity"}, {"smiles": "CC(C)(C)CC(C)(C)NC(=O)c1ccoc1Cl", "note": "[Compound 18]", "phytotoxicity": "no significant phytotoxicity"}, {"smiles": "CC(C)CC(C)NC(=O)c1ccoc1Cl", "note": "(stereo not shown) [Compound 19]", "phytotoxicity": "no significant phytotoxicity"}, {"smiles": "CC(NC(=O)c1ccoc1Cl)C1CCCC1", "note": "(stereo not shown) [Compound 20]", "phytotoxicity": "no significant phytotoxicity"}, {"smiles": "CC(NC(=O)c1ccoc1Cl)C1CCCCC1", "note": "(stereo not shown) [Compound 21]", "phytotoxicity": "no significant phytotoxicity"}, {"smiles": "CC(NC(=O)c1ccoc1Cl)C1(C)CC1", "note": "(stereo not shown) [Compound 22]", "phytotoxicity": "no significant phytotoxicity"}, {"smiles": "CC(NC(=O)c1ccoc1Cl)C1CCC1", "note": "(stereo not shown) [Compound 23]", "phytotoxicity": "no significant phytotoxicity"}, {"smiles": "CC(NC(=O)c1ccoc1Cl)C(F)(F)F", "note": "(stereo not shown) [Compound 24]", "phytotoxicity": "no significant phytotoxicity"}, {"smiles": "CC(C)C(C)NC(=O)c1ccoc1Cl", "note": "(stereo not shown) [Compound 26]", "phytotoxicity": "no significant phytotoxicity"}, {"smiles": "CC(NC(=O)c1ccoc1Cl)C(C)(C)C", "note": "(stereo not shown) [Compound 27, 2-chloro-N-(1,2,2-trimethylpropyl)-3-furancarboxamide]", "phytotoxicity": "no significant phytotoxicity"}, {"smiles": "CCCCCC(C)NC(=O)c1ccoc1Cl", "note": "(stereo not shown) [Compound 29]", "phytotoxicity": "no significant phytotoxicity"}, {"smiles": "CC(C)CCCC(C)NC(=O)c1ccoc1Cl", "note": "(stereo not shown) [Compound 30]", "phytotoxicity": "no significant phytotoxicity"}, {"smiles": "CC(NC(=O)c1ccoc1Br)C1CC1", "note": "(stereo not shown) [Compound 32]", "phytotoxicity": "no significant phytotoxicity"}, {"smiles": "CC(C)C(C)NC(=O)c1ccoc1Br", "note": "(stereo not shown) [Compound 33]", "phytotoxicity": "no significant phytotoxicity"}, {"smiles": "CCCC(C)NC(=O)c1ccoc1Br", "note": "(stereo not shown) [Compound 34]", "phytotoxicity": "no significant phytotoxicity"}, {"smiles": "CC(NC(=O)c1ccoc1Br)C(C)(C)C", "note": "(stereo not shown) [Compound 35]", "phytotoxicity": "no significant phytotoxicity"}, {"smiles": "Cc1occc1C(=O)N[C@H](C)C1CC1", "note": "[Compound 36]", "phytotoxicity": "no significant phytotoxicity"}, {"smiles": "Cc1occc1C(=O)N[C@@H](C)C1CC1", "note": "[Compound 37]", "phytotoxicity": "no significant phytotoxicity"}, {"smiles": "Cc1occc1C(=O)N[C@H](C)C(C)(C)C", "note": "[Compound 39]", "phytotoxicity": "no significant phytotoxicity"}, {"smiles": "C[C@H](NC(=O)c1ccoc1Cl)C(C)(C)C", "note": "[Compound 40, 2-chloro-N-[(1S)-1,2,2-trimethylpropyl]-3-furancarboxamide]", "phytotoxicity": "no significant phytotoxicity"}, {"smiles": "C[C@H](NC(=O)c1ccoc1Br)C(C)(C)C", "note": "[Compound 42]", "phytotoxicity": "no significant phytotoxicity"}, {"smiles": "CC(C)[C@H](C)NC(=O)c1ccoc1Cl", "note": "[Compound 43]", "phytotoxicity": "no significant phytotoxicity"}, {"smiles": "C[C@@H](NC(=O)c1ccoc1Cl)C1CC1", "note": "[Compound 45, 2-chloro-N-[(1R)-1-cyclopropylethyl]-3-furancarboxamide]", "phytotoxicity": "no significant phytotoxicity"}, {"smiles": "Cc1occc1C(=O)NC(C1CC1)C1CC1", "note": "[Compound 46]", "phytotoxicity": "no significant phytotoxicity"}, {"smiles": "Cc1occc1C(=O)NC1(C2CC2)CC1", "note": "[Compound 47]", "phytotoxicity": "no significant phytotoxicity"}, {"smiles": "Cc1ccsc1C(=O)NC(C)C(C)C", "note": "(stereo not shown) [Compound 48]", "phytotoxicity": "no significant phytotoxicity"}, {"smiles": "CC(NC(=O)c1sccc1Br)C1CC1", "note": "(stereo not shown) [Compound 50]", "phytotoxicity": "no significant phytotoxicity"}, {"smiles": "Cc1ccsc1C(=O)NC(C1CC1)C1CC1", "note": "[Compound 52]", "phytotoxicity": "no significant phytotoxicity"}, {"smiles": "CCC(NC(=O)c1ccoc1Cl)C1CC1", "note": "(stereo not shown) [Compound 53]", "phytotoxicity": "no significant phytotoxicity"}, {"smiles": "CC(NC(=O)c1ncsc1I)C1CC1", "note": "(stereo not shown) [Compound 56]", "phytotoxicity": "no significant phytotoxicity"}, {"smiles": "CSc1ccsc1C(=O)NC(C)C1CC1", "note": "(stereo not shown) [Compound 58]", "phytotoxicity": "no significant phytotoxicity"}, {"smiles": "Cc1ncc(C(=O)NC(C)C2CC2)s1", "note": "(stereo not shown) [Compound 60]", "phytotoxicity": "no significant phytotoxicity"}, {"smiles": "CC(NC(=O)c1ncsc1Cl)C1CC1", "note": "(stereo not shown) [Compound 62]", "phytotoxicity": "no significant phytotoxicity"}, {"smiles": "CC(NC(=O)c1ncsc1Br)C1CC1", "note": "(stereo not shown) [Compound 63]", "phytotoxicity": "no significant phytotoxicity"}, {"smiles": "CC(NC(=O)c1sccc1C(F)(F)F)C1CC1", "note": "(stereo not shown) [Compound 65]", "phytotoxicity": "no significant phytotoxicity"}, {"smiles": "CCC(NC(=O)c1ccoc1C)C1CC1", "note": "(stereo not shown) [Compound 67]", "phytotoxicity": "no significant phytotoxicity"}, {"smiles": "Cc1ncsc1C(=O)NC(C)C1CC1", "note": "(stereo not shown) [Compound 70]", "phytotoxicity": "no significant phytotoxicity"}, {"smiles": "CC(NC(=O)c1ncsc1C(F)(F)F)C1CC1", "note": "(stereo not shown) [Compound 72]", "phytotoxicity": "no significant phytotoxicity"}, {"smiles": "C[C@@H](NC(=O)c1ccoc1Br)C1CC1", "note": "[Compound 74]", "phytotoxicity": "no significant phytotoxicity"}, {"smiles": "CC(C)[C@@H](C)NC(=O)c1ccoc1Cl", "note": "[Compound 75]", "phytotoxicity": "no significant phytotoxicity"}, {"smiles": "CC[C@H](C)NC(=O)c1ccoc1Cl", "note": "[Compound 77]", "phytotoxicity": "no significant phytotoxicity"}, {"smiles": "Cc1occc1C(=O)NC(C)CC(C)(C)C", "note": "(stereo not shown) [Compound 80]", "phytotoxicity": "no significant phytotoxicity"}, {"smiles": "CC(C)C(C)NC(=O)c1sccc1C(C)(C)C", "note": "(stereo not shown) [Compound 89]", "phytotoxicity": "no significant phytotoxicity"}, {"smiles": "CC(NC(=O)c1sccc1C(C)(C)C)C(C)(C)C", "note": "(stereo not shown) [Compound 90]", "phytotoxicity": "no significant phytotoxicity"}, {"smiles": "CC(NC(=O)c1sccc1C#N)C(C)(C)C", "note": "(stereo not shown) [Compound 95]", "phytotoxicity": "no significant phytotoxicity"}, {"smiles": "Cc1occc1C(=O)N[C@H](C)C(C)C", "note": "[Compound 96]", "phytotoxicity": "no significant phytotoxicity"}, {"smiles": "Cc1occc1C(=O)N[C@@H](C)C(C)C", "note": "[Compound 101]", "phytotoxicity": "no significant phytotoxicity"}]}]}
